Experimental data: paper PMC10421270, “Investigation on Novel E/Z 2-Benzylideneindan-1-One-Based Photoswitches with AChE and MAO-B Dual Inhibitory Activity” (Molecules, 2023)
“And” between values parts separate entries of the source, which are not always exact repeats. Equal values may be shown once. Read-outs that look alike come from different tables or passages of the source.

Key:
hAChE [1] = target: T1, hAChE (Homo sapiens, UniProt P22303); assay: biochemical; format: biochemical
T1 construct: purchased Sigma Aldrich (Milan, Italy)
T1 sequence (P22303 32-614): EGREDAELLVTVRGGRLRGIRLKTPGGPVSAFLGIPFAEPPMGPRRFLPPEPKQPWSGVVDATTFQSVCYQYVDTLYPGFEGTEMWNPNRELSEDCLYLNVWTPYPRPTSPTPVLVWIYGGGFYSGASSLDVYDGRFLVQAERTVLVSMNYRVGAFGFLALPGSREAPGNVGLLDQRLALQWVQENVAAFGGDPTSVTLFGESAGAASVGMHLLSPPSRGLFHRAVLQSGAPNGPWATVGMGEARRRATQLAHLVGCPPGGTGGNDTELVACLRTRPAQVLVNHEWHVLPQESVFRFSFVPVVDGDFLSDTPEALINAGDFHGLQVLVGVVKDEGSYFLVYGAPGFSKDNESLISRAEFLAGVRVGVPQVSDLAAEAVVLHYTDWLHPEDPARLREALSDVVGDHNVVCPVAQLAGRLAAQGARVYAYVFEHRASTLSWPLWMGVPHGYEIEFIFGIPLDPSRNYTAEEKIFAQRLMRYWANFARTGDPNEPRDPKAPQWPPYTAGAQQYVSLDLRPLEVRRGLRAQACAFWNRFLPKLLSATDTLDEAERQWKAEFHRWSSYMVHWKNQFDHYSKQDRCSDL

BChE from human serum = target: T2, BChE from human serum (Homo sapiens, UniProt P06276); assay: biochemical; conditions: for inhibition at 10 µM: read-out: BChE % inhibition at 10 μM, 10 μM, values in parentheses, n.a. = not active; for IC50: mean ± SD of three independent measurements
T2 construct: BChE from human serum; purchased Sigma Aldrich (Milan, Italy); host or cells: human serum
T2 sequence (P06276 29-602): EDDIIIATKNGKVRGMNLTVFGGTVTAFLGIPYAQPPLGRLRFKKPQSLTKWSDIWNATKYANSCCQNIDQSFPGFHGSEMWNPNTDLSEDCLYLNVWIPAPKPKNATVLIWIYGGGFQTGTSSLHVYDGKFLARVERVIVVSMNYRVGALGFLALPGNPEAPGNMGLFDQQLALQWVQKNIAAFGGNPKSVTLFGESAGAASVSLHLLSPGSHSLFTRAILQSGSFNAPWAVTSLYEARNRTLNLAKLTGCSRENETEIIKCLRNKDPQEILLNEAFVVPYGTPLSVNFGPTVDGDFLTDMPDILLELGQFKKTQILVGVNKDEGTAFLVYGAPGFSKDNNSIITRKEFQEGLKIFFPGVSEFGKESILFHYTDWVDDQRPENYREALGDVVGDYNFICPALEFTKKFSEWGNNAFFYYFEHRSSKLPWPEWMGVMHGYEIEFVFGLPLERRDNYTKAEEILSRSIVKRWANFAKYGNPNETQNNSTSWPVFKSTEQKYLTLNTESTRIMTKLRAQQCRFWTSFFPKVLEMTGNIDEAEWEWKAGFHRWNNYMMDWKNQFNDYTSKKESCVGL
Experimental: Human isoforms of ChEs (human recombinant AChE and BChE from human serum) and MAOs (from baculovirus-infected insect cells), purchased from Sigma Aldrich (Milan, Italy), were used for inhibition assays. Experiments were performed in 96-well plates (Greiner Bio-One, Kremsmünster, Austria) on the Infinite M1000 Pro plate reader (Tecan, Cernusco s.N., Italy), using already published protocols [46, 58, 59, 60].

human recombinant MAO-A = target: T3, human recombinant MAO-A (Homo sapiens, UniProt P21397); assay: biochemical; conditions: for inhibition at 10 µM: read-out: MAO-A % inhibition at 10 μM, human MAO-A, values in parentheses; for IC50: MAO-A IC50, human MAO-A, mean ± SD of three independent measurements
T3 construct: purchased Sigma Aldrich (Milan, Italy); host or cells: baculovirus-infected insect cells
T3 sequence (P21397 1-527): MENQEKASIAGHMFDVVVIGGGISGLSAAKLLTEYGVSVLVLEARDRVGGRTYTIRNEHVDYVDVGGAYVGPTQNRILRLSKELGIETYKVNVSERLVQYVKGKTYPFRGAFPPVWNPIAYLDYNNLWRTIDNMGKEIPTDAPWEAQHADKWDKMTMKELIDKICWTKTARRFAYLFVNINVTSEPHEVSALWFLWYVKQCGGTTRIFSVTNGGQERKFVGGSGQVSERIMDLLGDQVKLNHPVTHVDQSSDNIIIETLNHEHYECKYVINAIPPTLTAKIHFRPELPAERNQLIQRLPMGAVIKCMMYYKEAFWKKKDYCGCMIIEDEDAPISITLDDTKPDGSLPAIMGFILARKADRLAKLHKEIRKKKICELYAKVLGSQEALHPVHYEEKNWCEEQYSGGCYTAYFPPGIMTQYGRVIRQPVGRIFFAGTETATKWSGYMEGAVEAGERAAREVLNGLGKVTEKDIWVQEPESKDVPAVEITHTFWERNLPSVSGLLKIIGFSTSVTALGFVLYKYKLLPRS

human recombinant MAO B = target: T4, human recombinant MAO B (Homo sapiens, UniProt P27338); assay: biochemical; conditions: mean ± SD of three independent measurements
T4 construct: purchased Sigma Aldrich (Milan, Italy); host or cells: baculovirus-infected insect cells
T4 sequence (P27338 1-520): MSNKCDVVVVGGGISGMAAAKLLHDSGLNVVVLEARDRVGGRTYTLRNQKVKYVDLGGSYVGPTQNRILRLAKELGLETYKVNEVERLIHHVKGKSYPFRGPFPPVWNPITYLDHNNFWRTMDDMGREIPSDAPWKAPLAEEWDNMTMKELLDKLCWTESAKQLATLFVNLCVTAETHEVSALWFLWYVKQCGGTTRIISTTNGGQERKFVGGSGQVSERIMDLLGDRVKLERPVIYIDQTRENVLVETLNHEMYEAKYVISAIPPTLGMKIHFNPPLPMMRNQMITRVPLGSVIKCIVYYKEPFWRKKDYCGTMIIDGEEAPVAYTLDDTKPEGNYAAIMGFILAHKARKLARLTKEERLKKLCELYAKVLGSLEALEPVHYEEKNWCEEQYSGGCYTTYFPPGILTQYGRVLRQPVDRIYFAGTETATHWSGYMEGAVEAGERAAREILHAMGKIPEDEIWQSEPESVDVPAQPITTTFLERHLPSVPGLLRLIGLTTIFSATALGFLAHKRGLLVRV
Experimental: In MAOs’ inhibition assays, each test compound, at 10 μM concentration, was preincubated for 20 min at 37 °C with 50 μM kynuramine as the substrate in 0.1 M phosphate-buffered solution (PBS) pH 8.0 made 0.39 osmolar with KCl. After the addition of human recombinant MAO-A (250 U/mg) or MAO B (59 U/mg) and a further 30 min of incubation, NaOH was added, and the fluorescence read at 310/400 nm excitation/emission wavelength. […] For the kinetic study on the inhibition mechanism of MAO B, three diverse scalar concentrations of the inhibitor and seven concentrations of kynuramine were used [40, 61, 62].

hAChE [2] = target: T1, hAChE; parameters: method as in PMID 35923722; conditions: read-out: AChE IC50; previously reported values; ref [40]; listed as E-1; cited from earlier work
[3] = parameters: method as in PMID 35923722; conditions: ref [40]; cited from earlier work
[4] = UV-B photoisomerization to the photostationary state (1H NMR); format: physicochemical; conditions: 10 mM in methanol, two 15 W UV-B lamps, 24 °C; almost completed
Experimental: Using ^1H NMR spectroscopy, the formation of the Z diastereoisomer can be determined with confidence. Specifically, as previously done for 1a, methanol-d4 solutions of compounds 1b–e at a concentration of about 10 mM were irradiated with UV-B light in a Pyrex NMR tube and observed until the photostationary state (PSS) was reached.
The same procedure was followed for compounds 1f–h. However, due to the poor solubility in methanol at the concentrations required for ^1H NMR analysis, 1f–h was irradiated and monitored in an acetone-d6 solution. The diastereomeric E/Z ratio of the obtained PSS-1b–h was determined by calculating the area of the easily distinguishable signals assigned to the E and Z isomers (Figure 4).
The solution was irradiated with UV-B light until reaching the PSSUV-B (almost completed in 50–80 min). Subsequently, the PSSUV-B solution was irradiated under the same conditions with UV-C light generated using two lamps (15 Watt GT15T8 Hg UV-C tube), observing the photoconversion of the cis isomer into the trans isomer without the appearance of photodegradation.

hAChE [5] = target: T1, hAChE; assay: AChE inhibition kinetics (Lineweaver–Burk, replot of slopes); format: biochemical
[6] = parameters: method as in PMID 35923722; conditions: Z isomer, thermal reversion; ref [40]; cited from earlier work
[7] = human AChE, mean ± SD of three independent measurements, read-out: AChE IC50

| SMILES | inhibition at 10 µM (BChE from human serum) [%] | inhibition at 10 µM (human recombinant MAO-A) [%] | IC50 (human recombinant MAO B) [nM] | IC50 (BChE from human serum) [µM] | IC50 (hAChE [1]; [7]) [nM] | also measured |
| --- | --- | --- | --- | --- | --- | --- |
| CCN(CC)Cc1ccc(C=C2Cc3cc(OC)ccc3C2=O)cc1 (mixture of isomers) [E/Z-1a] | 28 | 45 | 1590 ± 40 | – | – | IC50 (hAChE [1]): 780 ± 13 nM |
| CCN(CC)Cc1ccc(/C=C2\Cc3cc(OC)ccc3C2=O)cc1 [Compound E-1a, 2-(4-((diethylamino)methyl)benzylidene)-5-methoxy-2,3-dihydro-1H-inden-1-one] | – | 33 | 260 ± 12 | 10 ± 0.15 | – | IC50 (hAChE [1]): 105 ± 5 nM; IC50 (hAChE [2]): 110 nM; Z-isomer in the photostationary state (PSS) after UV-B light [3]: 75% |
| COc1ccc2c(c1)C/C(=C\c1ccc(CN(C)C)cc1)C2=O [Compound E-1b, (E)-2-(4-((Dimethylamino)methyl)benzylidene)-5-methoxy-2,3-dihydro-1H-inden-1-one] | – | 33 | 686 ± 59 | – | 155 ± 10 | – |
| CCCN(CCC)Cc1ccc(/C=C2\Cc3cc(OC)ccc3C2=O)cc1 [Compound E-1c, (E)-2-(4-((Dipropylamino)methyl)benzylidene)-5-methoxy-2,3-dihydro-1H-inden-1-one] | 28 | 15 | 479 ± 81 | – | 174 ± 17 | time to reach PSS under UV-B irradiation [4]: 50 to 80 min |
| CCCCN(CCCC)Cc1ccc(/C=C2\Cc3cc(OC)ccc3C2=O)cc1 [Compound E-1d, (E)-2-(4-((Dibutylamino)methyl)benzylidene)-5-methoxy-2,3-dihydro-1H-inden-1-one] | 28 | 12 | 338 ± 36 | – | 990 ± 50 | – |
| CCCCN(C)Cc1ccc(/C=C2\Cc3cc(OC)ccc3C2=O)cc1 [Compound E-1e, (E)-2-(4-((Butyl(methyl)amino)methyl)benzylidene)-5-methoxy-2,3-dihydro-1H-inden-1-one] | – | 20 | 178 ± 86 | 5 ± 0.45 | 102 ± 19 | – |
| COc1ccc2c(c1)C/C(=C\c1ccc(CN(C(C)C)C(C)C)cc1)C2=O [Compound E-1f, (E)-2-(4-((Diisopropylamino)methyl)benzylidene)-5-methoxy-2,3-dihydro-1H-inden-1-one] | – | 22 | – | 10 ± 0.85 | 261 ± 14 | – |
| COc1ccc2c(c1)C/C(=C\c1ccc(CN(C)Cc3ccccc3)cc1)C2=O [Compound E-1g, (E)-2-(4-((Benzyl(methyl)amino)methyl)benzylidene)-5-methoxy-2,3-dihydro-1H-inden-1-one] | – | 39 | 292 ± 60 | 9.9 ± 0.11 | 115 ± 4 | – |
| CCN(Cc1ccccc1)Cc1ccc(/C=C2\Cc3cc(OC)ccc3C2=O)cc1 [Compound E-1h, (E)-2-(4-((Benzyl(ethyl)amino)methyl)benzylidene)-5-methoxy-2,3-dihydro-1H-inden-1-one] | – | 13 | 355 ± 134 | 7 ± 0.01 | 39 ± 1 | decrease of AChE inhibitory potency on photoisomerization to Z (75% Z in PSS) (hAChE [1]; PSS mixture versus pure E isomer): about 30%; mechanism of AChE inhibition (hAChE [5]; Lineweaver–Burk, both Vmax and Km changed): mixed-type inhibition; Ki (hAChE [5]; replot of slopes versus [I], x-axis intercept, hAChE 0.2 U/mL, acetylthiocholine iodide 50–300 μM): 100 nM |
| CCN(CC)Cc1ccc(/C=C2/Cc3cc(OC)ccc3C2=O)cc1 [Compound Z-1a] | – | – | – | – | – | half-life in MeOH at room temperature [6]: 47 days |
| COc1ccc2c(c1)CC(=Cc1ccc(CN(C)C)cc1)C2=O [E/Z-1b] | 25 | 32 | 839 ± 123 | – | 915 ± 138 | – |
| CCCN(CCC)Cc1ccc(C=C2Cc3cc(OC)ccc3C2=O)cc1 [E/Z-1c] | 20 | – | 743 ± 48 | – | 295 ± 45 | IC50 (human recombinant MAO-A): ~3 µM and 2.98 µM |
| CCCCN(CCCC)Cc1ccc(C=C2Cc3cc(OC)ccc3C2=O)cc1 [E/Z-1d] | – | 37 | 382 ± 6 | – | 2280 ± 210 | – |
| CCCCN(C)Cc1ccc(C=C2Cc3cc(OC)ccc3C2=O)cc1 [E/Z-1e] | – | 25 | 651 ± 61 | – | 1360 ± 60 | – |
| COc1ccc2c(c1)CC(=Cc1ccc(CN(C(C)C)C(C)C)cc1)C2=O [E/Z-1f] | 20 | – | 241 ± 26 | – | 1410 ± 90 | IC50 (human recombinant MAO-A): ~3 µM and 3.19 µM |
| COc1ccc2c(c1)CC(=Cc1ccc(CN(C)Cc3ccccc3)cc1)C2=O [E/Z-1g] | 40 | 49 | 354 ± 70 | – | 135 ± 62 | – |
| CCN(Cc1ccccc1)Cc1ccc(C=C2Cc3cc(OC)ccc3C2=O)cc1 [E/Z-1h] | – | 39 | 358 ± 8 | 10 ± 0.32 | 53 ± 6 | – |
